Measured values taken from patent US20230390384A1 (priority 2020, published 2023).
Entries after “also recorded” stand apart in the source; their conditions may differ.

Test system: RBD, a South African mutant antigen of COVID-19
Design: species or system SARS-CoV-2
Conditions: in vivo

| Substance | antigen-specific antibody titer (RBD South African mutant) |
| --- | --- |
| FSL-1 | higher antibody titer; also recorded: highest antibody titer |
| N-palmitoyl-S-[2,3-bis(palmitoyloxy)-(2RS)-propyl]-[R]-cystein-SKKKK [Pam3CSK4] | higher antibody titer; also recorded: highest antibody titer |
